Reference: patent US9365548B2, “Benzoimidazol-2-yl pyrimidines and pyrazines as modulators of the histamine H4 receptor” (Janssen Pharmaceutica NV, priority 2006, dated 2016)

Target: T1, Recombinant Human Histamine H4 Receptor (Homo sapiens, UniProt Q9H3N8)
T1 construct: expressed in transfected cells; host or cells: SK-N-MC cells or COS7 cells, transiently transfected; cell membranes used
Assay: Binding Assay on Recombinant Human Histamine H4 Receptor
Details: competition binding with 3H-histamine, membranes of SK-N-MC or COS7 cells expressing human histamine H4 receptor; Ki by Cheng-Prusoff (KD 5 nM, ligand 5 nM); average of results obtained
From the text: Additional examples of embodiments of this invention are provided by hemitartrate salts of compounds of Formula (I) and by hydrates, such as monohydrates and dihydrates, of compounds of Formula (I). […]

Row | Ki [nM] | SMILES
1 | 13 | Cc1nc(NCCCC2CCN(C)CC2)ncc1-c1nc2cc(C(C)(C)C)ccc2[nH]1 [Example 25, [5-(5-tert-Butyl-1H-benzoimidazol-2-yl)-4-methyl-pyrimidin-2-yl]-[3-(1-methyl-piperidin-4-yl)-propyl]-amine]
2 | 13 | Cc1nc(NCCCC2CCN(C)CC2)ncc1-c1nc2c(C)c(Cl)ccc2[nH]1 [Example 26, [5-(5-Chloro-4-methyl-1H-benzoimidazol-2-yl)-4-methyl-pyrimidin-2-yl]-[3-(1-methyl-piperidin-4-yl)-propyl]-amine]
3 | 92 | Cc1c(F)ccc2[nH]c(-c3cnc(NCCCC4CCN(C)CC4)nc3C(F)(F)F)nc12 [Example 27, [5-(5-Fluoro-4-methyl-1H-benzoimidazol-2-yl)-4-trifluoromethyl-pyrimidin-2-yl]-[3-(1-methyl-piperidin-4-yl)-propyl]-amine]
4 | 62 | Cc1cc(F)cc2[nH]c(-c3cnc(NCCCC4CCN(C)CC4)nc3C(F)(F)F)nc12 [Example 28, [5-(6-Fluoro-4-methyl-1H-benzoimidazol-2-yl)-4-trifluoromethyl-pyrimidin-2-yl]-[3-(1-methyl-piperidin-4-yl)-propyl]-amine]
5 | 35 | CN1CCC(CCCNc2ncc(-c3nc4c(Cl)cc(Cl)cc4[nH]3)c(C(F)(F)F)n2)CC1 [Example 29, [5-(4,6-Dichloro-1H-benzoimidazol-2-yl)-4-trifluoromethyl-pyrimidin-2-yl]-[3-(1-methyl-piperidin-4-yl)-propyl]-amine]
6 | 230 | Cc1ccc2[nH]c(-c3cnc(NCCCC4CCN(C)CC4)nc3C(F)(F)F)nc2c1C [Example 30, [5-(4,5-Dimethyl-1H-benzoimidazol-2-yl)-4-trifluoromethyl-pyrimidin-2-yl]-[3-(1-methyl-piperidin-4-yl)-propyl]-amine]

Second part, the compound before the results:

Row | SMILES | Ki [nM]
7 | Cc1c(F)ccc2[nH]c(-c3cnc(NCCCC4CCN(C)CC4)nc3C3CCC3)nc12 [Example 16, [4-Cyclobutyl-5-(5-fluoro-4-methyl-1H-benzoimidazol-2-yl)-pyrimidin-2-yl]-[3-(1-methyl-piperidin-4-yl)-propyl]-amine] | 1470
8 | Cc1cc(C)c2nc(-c3cnc(NCCCC4CCN(C)CC4)nc3C3CCC3)[nH]c2c1 [Example 17, [4-Cyclobutyl-5-(4,6-dimethyl-1H-benzoimidazol-2-yl)-pyrimidin-2-yl]-[3-(1-methyl-piperidin-4-yl)-propyl]-amine] | 1320
9 | CCCc1nc(NCCCC2CCN(C)CC2)ncc1-c1nc2c(C)c(C)ccc2[nH]1 [Example 18, [5-(4,5-Dimethyl-1H-benzoimidazol-2-yl)-4-propyl-pyrimidin-2-yl]-[3-(1-methyl-piperidin-4-yl)-propyl]-amine] | 2410
10 | Cc1c(F)ccc2[nH]c(-c3cnc(NCCCC4CCN(C)CC4)nc3C(C)C)nc12 [Example 20, [5-(5-Fluoro-4-methyl-1H-benzoimidazol-2-yl)-4-isopropyl-pyrimidin-2-yl]-[3-(1-methyl-piperidin-4-yl)-propyl]-amine] | 230
11 | Cc1nc(NCCCC2CCN(C)CC2)ncc1-c1nc2c(C)cccc2[nH]1 [Example 21, [4-Methyl-5-(4-methyl-1H-benzoimidazol-2-yl)-pyrimidin-2-yl]-[3-(1-methyl-piperidin-4-yl)-propyl]-amine] | 27
12 | Cc1nc(NCCCC2CCN(C)CC2)ncc1-c1nc2ccccc2[nH]1 [Example 22, [5-(1H-Benzoimidazol-2-yl)-4-methyl-pyrimidin-2-yl]-[3-(1-methyl-piperidin-4-yl)-propyl]-amine] | 110
13 | Cc1nc(NCCCC2CCN(C)CC2)ncc1-c1nc2cc(F)ccc2[nH]1 [Example 23, [5-(5-Fluoro-1H-benzoimidazol-2-yl)-4-methyl-pyrimidin-2-yl]-[3-(1-methyl-piperidin-4-yl)-propyl]-amine] | 59
14 | Cc1nc(NCCCC2CCN(C)CC2)ncc1-c1nc2cc(C(F)(F)F)ccc2[nH]1 [Example 24, [3-(1-Methyl-piperidin-4-yl)-propyl]-[4-methyl-5-(5-trifluoromethyl-1H-benzoimidazol-2-yl)-pyrimidin-2-yl]-amine] | 12
